Data from patent US20240158393A1, “PYRIDONE COMPOUNDS AND METHODS OF USE” (Exelixis, Inc., priority 2021, published 2024).
Structures can show the parent of a compound that is named as a salt.

Key:
[1] = molecular target: T1, Human Mer (Homo sapiens, UniProt Q12866); experiment: Human Mer kinase assay (33P radiometric / HTRF KinEase); type: biochemical; conditions: protocols of Examples C-1 and/or C-2
T1 construct: Human Mer (residues R557-E882 with H628Q and R794A, 0.7 nM); purchased Eurofins Pharma Discovery Services UK Limited (KinaseProfiler service)
T1 sequence (Q12866 557-882 limits assumed): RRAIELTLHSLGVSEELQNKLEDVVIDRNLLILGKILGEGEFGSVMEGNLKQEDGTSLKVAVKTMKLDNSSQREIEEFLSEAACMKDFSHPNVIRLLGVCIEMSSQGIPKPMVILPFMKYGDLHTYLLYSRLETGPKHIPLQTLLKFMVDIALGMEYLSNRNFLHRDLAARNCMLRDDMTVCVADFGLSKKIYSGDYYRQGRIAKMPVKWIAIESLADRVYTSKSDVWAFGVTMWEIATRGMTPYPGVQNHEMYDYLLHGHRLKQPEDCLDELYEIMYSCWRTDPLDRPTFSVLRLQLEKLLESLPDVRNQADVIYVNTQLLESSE
Procedure, shortened: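 Two formats yield IC50 values. HTRF KinEase used MER residues 528-999 with ATP at Km (40 μM), 1 μM biotin-peptide, 60 min RT, […], 10 concentrations. 33P filter assay used 0.7 nM Mer R557-E882 (H628Q/R794A), 10 μM ATP, 250 μM peptide, 40 min RT, top 1 μM.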

[2] = molecular target: T2, Human Met (Homo sapiens, UniProt P08581); experiment: Human Met kinase assay (33P radiometric / HTRF KinEase); type: biochemical; conditions: protocols of Examples D-1 and/or D-2; read-out: c-Met IC50
T2 construct: Human MET (residues 956-1390)
Procedure: Kinase activity and compound inhibition were investigated using the ^33P-Phosphoryl transfer radiometric kinase assay, performed using the KinaseProfiler™ service of Eurofins Pharma Discovery Services UK Limited. Dose-response experiments were performed using nine compound concentrations in a 96-well microtiter plate. For each assay, all compounds were prepared to a 50× final assay concentration (50 μM) in 100% DMSO, then diluted in a half-log series, with the final top concentration at 1 μM. This working stock of the compound was added to the assay well as the first component in the reaction, followed by the remaining components as detailed in the following assay protocols below. The positive control wells (100% kinase activity) contain all components of the reaction including 2% DMSO (control for solvent effects), except the compound of interest. Blank wells contain all components of the reaction, with the reference inhibitor, staurosporine. This reference compound was used to abolish kinase activity and generated the 0% kinase activity base-line. IC50 values were calculated by nonlinear regression analysis using the sigmoidal dose-response (variable slope) curve fit on XLFit version 5.3 (ID Business Solutions).
Kinase activity and compound inhibition were also investigated using the HTRF® KinEase assay (Cisbio Cat #62TKOPEB) per manufacturer's instructions. In short, compounds were delivered in 300 nL volumes at 10 different concentrations in DMSO (3% final) to empty 384-well assay plates (Corning cat #3824). A mixture of enzyme, 1 μM biotinylated peptide substrate, and buffer in 10 μL volume was added. The assay was started upon the addition of ATP (at Km). The 10 μL reaction was incubated at room temperature. The reaction was stopped upon the addition of detection buffer containing streptavidin-XL665 (5 μL) and TK antibody-Eu3+(5 μL). After a 60 min incubation at room temperature, the fluorescence at 665 nm and 620 nm was read on an Envision microplate reader (Perkin Elmer).
Kinase activity normalized to DMSO (100% activity) and reference compound at 1 μM and (0% activity) was calculated using the fluorescence ratio […]. IC50 values were calculated by nonlinear regression analysis using a 4-parameter logistic curve fit in ActivityBase XE (IDBS).
Example D-1: Human Met (residues R974-S1390 with A1209G and V1290L, 3.4 nM) was incubated with 8 mM MOPS pH 7.0, 0.2 mM EDTA, 250 μM KKKGQEEEYVFIE (SEQ ID NO:3), 1 mM sodium orthovanadate, 5 mM […], 10 mM magnesium acetate, and 10 μM [γ-^33P-ATP]. The reaction was initiated by the addition of the Mg/ATP mix. After incubation for 40 minutes at room temperature, the reaction was stopped by the addition of phosphoric acid to a concentration of 0.5%. A reaction aliquot of 10 μL was then spotted onto a P30 filtermat and washed four times for 4 minutes in 0.425% phosphoric acid and once in methanol prior to drying and scintillation counting. Incorporated ^33P was measured using the Wallac Microbeta scintillation counter (Perkin Elmer).
Example D-2: Human MET (residues 956-1390; CarnaBio, 0.1 ng/well) was also incubated with enzymatic buffer (Cisbio) supplemented with 5 mM MgCl2, 1 mM DTT and 1 mM MnCl2. The mixture was added to the pre-plated compounds. The reaction was initiated upon addition of ATP at Km (3.0 μM). The reaction was incubated at room temperature for 40 min and stopped upon the addition of SA-XL665 and TK-antibody both diluted in EDTA-containing kinase detection buffer (Cisbio). The kinase activity was calculated as stated above and the IC50 values were reported.

T2 sequence (P08581 974-1390 limits assumed): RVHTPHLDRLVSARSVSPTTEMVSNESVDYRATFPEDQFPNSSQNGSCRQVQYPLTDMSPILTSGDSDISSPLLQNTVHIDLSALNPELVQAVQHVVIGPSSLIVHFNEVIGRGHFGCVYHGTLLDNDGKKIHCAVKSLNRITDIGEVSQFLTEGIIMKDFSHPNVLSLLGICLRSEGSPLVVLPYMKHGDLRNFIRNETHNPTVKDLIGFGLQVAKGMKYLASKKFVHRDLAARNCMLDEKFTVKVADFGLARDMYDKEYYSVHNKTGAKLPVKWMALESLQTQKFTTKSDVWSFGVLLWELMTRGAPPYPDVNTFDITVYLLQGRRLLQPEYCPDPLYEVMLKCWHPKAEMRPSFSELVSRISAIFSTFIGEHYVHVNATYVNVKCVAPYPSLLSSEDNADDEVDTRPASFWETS

IC50 [1]	IC50 [2]	Structure (SMILES)
> 300 nM	> 300 nM	COc1cc2nccc(Oc3ccc(NC(=O)c4c(C)nc(C)c(C(N)=O)c4O)cc3)c2nc1OC [Compound 85, 3-N-[4-[(6,7-Dimethoxy-1,5-naphthyridin-4-yl)oxy]phenyl]-4-hydroxy-2,6-dimethylpyridine-3,5-dicarboxamide]
≤ 100 nM	≤ 100 nM	COCCOc1cc2nccc(Oc3ccc(NC(=O)c4c(C)nc(C)c(C5=CCCC5)c4O)cc3F)c2nc1OC [Compound 41, 5-(Cyclopenten-1-yl)-N-[3-fluoro-4-[[6-methoxy-7-(2-methoxyethoxy)-1,5-naphthyridin-4-yl]oxy]phenyl]-4-hydroxy-2,6-dimethylpyridine-3-carboxamide]
≤ 100 nM	> 300 nM	COc1cc2nccc(Oc3ccc(NC(=O)c4c(C)n(C)c(C)c(/C=C/C5CC5)c4=O)cc3F)c2nc1OC [Compound 50, 5-[(E)-2-Cyclopropylethenyl]-N-[4-[(6,7-dimethoxy-1,5-naphthyridin-4-yl)oxy]-3-fluorophenyl]-1,2,6-trimethyl-4-oxopyridine-3-carboxamide]
> 300 nM	> 300 nM	COc1cc2nccc(Oc3ccc(NC(=O)c4c(C)nc(C)c(C(N)=O)c4O)cc3F)c2nc1OC [Compound 84, 3-N-[4-[(6,7-Dimethoxy-1,5-naphthyridin-4-yl)oxy]-3-fluorophenyl]-4-hydroxy-2,6-dimethylpyridine-3,5-dicarboxamide]
≤ 100 nM	≤ 100 nM	COc1cc2nccc(Oc3ccc(NC(=O)c4c5n(c(C)c(C6=CCCCC6)c4=O)CCOC5)cc3F)c2nc1OC [Compound 80, 7-(Cyclohexen-1-yl)-N-[4-[(6,7-dimethoxy-1,5-naphthyridin-4-yl)oxy]-3-fluorophenyl]-6-methyl-8-oxo-3,4-dihydro-1H-pyrido[2,1-c][1,4]oxazine-9-carboxamide]
≤ 100 nM	≤ 100 nM	COc1cc2nccc(Oc3ccc(NC(=O)c4cn(C)c(C)c(C5=CCCC5)c4=O)cc3F)c2nc1OC [Compound 1, 5-(Cyclopenten-1-yl)-N-[4-[(6,7-dimethoxy-1,5-naphthyridin-4-yl)oxy]-3-fluorophenyl]-1,6-dimethyl-4-oxopyridine-3-carboxamide]
≤ 100 nM	≤ 100 nM	COc1cc2nccc(Oc3ccc(NC(=O)c4cnc(C)c(/C=C/CC(C)C)c4O)cc3F)c2cc1OC [Compound 29, N-[4-(6,7-Dimethoxyquinolin-4-yl)oxy-3-fluorophenyl]-4-hydroxy-6-methyl-5-[(E)-4-methylpent-1-enyl]pyridine-3-carboxamide]
≤ 100 nM	≤ 100 nM	COc1cc2nccc(Oc3ccc(NC(=O)c4c5n(c(C)c(C6=CCOCC6)c4=O)CCOC5)cc3F)c2nc1OC [Compound 79, 7-(3,6-Dihydro-2H-pyran-4-yl)-N-[4-[(6,7-dimethoxy-1,5-naphthyridin-4-yl)oxy]-3-fluorophenyl]-6-methyl-8-oxo-3,4-dihydro-1H-pyrido[2,1-c][1,4]oxazine-9-carboxamide]
≤ 100 nM	≤ 100 nM	COc1cc2nccc(Oc3ccc(NC(=O)c4c(C)nc(C)c(C5=CCCC5)c4O)cc3F)c2nc1OC [Compound 1-2, 5-(Cyclopenten-1-yl)-N-[4-[(6,7-dimethoxy-1,5-naphthyridin-4-yl)oxy]-3-fluorophenyl]-4-hydroxy-2,6-dimethylpyridine-3-carboxamide hydrochloride]
≤ 100 nM	≤ 100 nM	COc1cc2nccc(Oc3ccc(NC(=O)c4c(C)cc(C)n(C5=CCCC5)c4=O)cc3F)c2nc1OC [Compound 14, 1-(Cyclopenten-1-yl)-N-[4-[(6,7-dimethoxy-1,5-naphthyridin-4-yl)oxy]-3-fluorophenyl]-4,6-dimethyl-2-oxopyridine-3-carboxamide]
≤ 100 nM	> 300 nM	COc1cc2nccc(Oc3ccc(NC(=O)c4c(C)ccn(C(C)C)c4=O)cc3)c2nc1OC [Compound 39, N-[4-[(6,7-Dimethoxy-1,5-naphthyridin-4-yl)oxy]phenyl]-4-methyl-2-oxo-1-propan-2-ylpyridine-3-carboxamide]
≤ 100 nM	≤ 100 nM	COc1cc2nccc(Oc3ccc(NC(=O)c4c(C)nc(C)c(C(C)C)c4O)cc3)c2nc1OC [Compound 9, N-[4-[(6,7-Dimethoxy-1,5-naphthyridin-4-yl)oxy]phenyl]-4-hydroxy-2,6-dimethyl-5-propan-2-ylpyridine-3-carboxamide]
≤ 100 nM	> 300 nM	COc1cc2nccc(Oc3cc(F)c(NC(=O)c4c(C)n(C)c(C)c(C5CC5)c4=O)cc3F)c2nc1OC [Compound 47, 5-Cyclopropyl-N-[4-[(6,7-dimethoxy-1,5-naphthyridin-4-yl)oxy]-2,5-difluorophenyl]-1,2,6-trimethyl-4-oxopyridine-3-carboxamide]
≤ 100 nM	≤ 100 nM	COCCOc1cc2nccc(Oc3ccc(NC(=O)c4c(C)n(C)c(C)c(/C=C/C5CC5)c4=O)cc3F)c2nc1OC [Compound 51, 5-[(E)-2-Cyclopropylethenyl]-N-[3-fluoro-4-[[6-methoxy-7-(2-methoxyethoxy)-1,5-naphthyridin-4-yl]oxy]phenyl]-1,2,6-trimethyl-4-oxopyridine-3-carboxamide]
≤ 100 nM	≤ 100 nM	COCCOc1cc2nccc(Oc3ccc(NC(=O)c4cnc(C)c(C5=CCOCC5)c4O)cc3F)c2nc1OC [Compound 35, 5-(3,6-Dihydro-2H-pyran-4-yl)-N-[3-fluoro-4-[[6-methoxy-7-(2-methoxyethoxy)-1,5-naphthyridin-4-yl]oxy]phenyl]-4-hydroxy-6-methylpyridine-3-carboxamide]
> 300 nM	> 300 nM	COCCOc1cc2nccc(Oc3cc(F)c(NC(=O)c4c(C)n(C)c(C)c(C#N)c4=O)cc3F)c2nc1OC [Compound 83, 5-Cyano-N-[2,5-difluoro-4-[[6-methoxy-7-(2-methoxyethoxy)-1,5-naphthyridin-4-yl]oxy]phenyl]-1,2,6-trimethyl-4-oxopyridine-3-carboxamide]
≤ 100 nM	≤ 100 nM	COc1cc2nccc(Oc3ccc(NC(=O)c4cnc(C)c(C5=CCCCC5)c4O)cc3)c2cc1OC [Compound 24, 5-(Cyclohexen-1-yl)-N-[4-(6,7-dimethoxyquinolin-4-yl)oxyphenyl]-4-hydroxy-6-methylpyridine-3-carboxamide]
> 300 nM	> 300 nM	COCCOc1cc2nccc(Oc3cc(F)c(NC(=O)c4c(C)nc(C)c(C(N)=O)c4O)cc3F)c2nc1OC [Compound 86, 3-N-[2,5-Difluoro-4-[[6-methoxy-7-(2-methoxyethoxy)-1,5-naphthyridin-4-yl]oxy]phenyl]-4-hydroxy-2,6-dimethylpyridine-3,5-dicarboxamide]
